Patent US10882871B2, “18/19F-labelled compounds which target the prostate specific membrane antigen” (BRITISH COLUMBIA CANCER AGENCY BRANCH, priority 2016, dated 2021)

Tested on: PSMA-expressing LNCAP cancer xenografts
Experiment: Biodistribution and tumor-to-background contrast ratios of 18F-labeled tracers
Type: in vivo, mouse (NODSCID 1L2RγKO male mice)
Experimental: LNCap cell line was obtained from ATCC (LNCaP clone FGC, CRL-1740). It was established from a metastatic site of left supraclavicular lymph node of human prostatic adenocarcinoma. Cells were cultured in PRMI 1640 medium supplemented with 10% FBS, penicillin (100 U/mL) and streptomycin (100 μg/mL) at 37° C. in a humidified incubator containing 5% CO2. Cells grown to 80-90% confluence were then washed with sterile phosphate-buffered saline (1×PBS pH 7.4) and trypsinization. The collected cells number was counted with a Hausser Scientific (Horsham, Pa.) Hemacytometer.
Imaging and biodistribution experiments were performed using NODSCID 1L2RγKO male mice. Mice were anesthetized by inhalation with 2% isoflurane in oxygen, and implanted subcutaneously with 1×10^7 LNCaP cells behind left shoulder. Mice were imaged or used in biodistribution studies when the tumor grew up to reach 5-8 mm in diameter during 5-6 weeks.
PET imaging experiments were conducted using Siemens Inveon micro PET/CT scanner. Each tumor bearing mouse was injected 6-8 MBq of F-18 labeled tracer through the tail vein under anesthesia (2% isoflurane in oxygen). The mice were allowed to recover and roam freely in their cage. After 50 min, the mice were sedated again with 2% isoflurane in oxygen inhalation and positioned in the scanner. A 10-min CT scan was conducted first for localization and attenuation correction after segmentation for reconstructing the PET images. Then, a 10-min static PET imaging was performed to determined uptake in tumor and other organs. The mice were kept warm by a heating pad during acquisition. For imaging studies acquired at 2 h post-injection (p.i.), the mice were placed in the micro PET/CT scanner at 110 min p.i. Then, the CT and PET acquisitions were conducted as described above.
For biodistribution studies, the mice were injected with the radiotracer as described above. At predetermined time points (1 or 2 h), the mice was anesthetized with 2% isoflurane inhalation, and euthanized by CO2 inhalation. Blood was withdrawn immediately from the heart, and the organs/tissues of interest were collected. The collected organs/tissues were weighed and counted using an automatic gamma counter. The uptake in each organ/tissue was normalized to the injected dose using a standard curve, and expressed as the percentage of the injected dose per gram of tissue (% ID/g).

C[N+](C)(Cc1ccc(C(=O)NCCCC[C@H](NC(=O)N[C@@H](CCC(=O)O)C(=O)O)C(=O)O)cc1)C[B-](F)(F)[18F] [F-18 HTK-01069]
Biodistribution Adrenal glands (1 h): 4.77 ± 1.75 % ID/g
Biodistribution Blood (1 h): 0.57 ± 0.15 % ID/g
Biodistribution Bone (1 h): 0.36 ± 0.02 % ID/g
Biodistribution Brain (1 h): 0.04 ± 0.01 % ID/g
Biodistribution Fat (1 h): 0.99 ± 0.39 % ID/g
Biodistribution Heart (1 h): 0.30 ± 0.06 % ID/g
Biodistribution Intestine (1 h): 0.54 ± 0.11 % ID/g
Biodistribution Kidneys (1 h): 114 ± 41.3 % ID/g
Biodistribution Liver (1 h): 2.90 ± 0.56 % ID/g
Biodistribution Lungs (1 h): 1.37 ± 0.36 % ID/g
Biodistribution Muscle (1 h): 0.26 ± 0.08 % ID/g
Biodistribution Pancreas (1 h): 0.55 ± 0.16 % ID/g
Biodistribution Spleen (1 h): 2.67 ± 0.98 % ID/g
Biodistribution Stomach (1 h): 0.12 ± 0.05 % ID/g
Biodistribution Testes (1 h): 0.62 ± 0.15 % ID/g
Biodistribution Tumor (1 h): 6.04 ± 1.24 % ID/g
Tumor:Blood contrast ratio (1 h): 10.8 ± 1.64
Tumor:Muscle contrast ratio (1 h): 23.4 ± 3.71
Tumor:kidney contrast ratio (1 h): 0.07 ± 0.06
Biodistribution Adrenal glands (2 h): 3.66 ± 2.01 % ID/g
Biodistribution Blood (2 h): 0.24 ± 0.10 % ID/g
Biodistribution Bone (2 h): 0.30 ± 0.10 % ID/g
Biodistribution Brain (2 h): 0.04 ± 0.01 % ID/g
Biodistribution Fat (2 h): 0.86 ± 0.53 % ID/g
Biodistribution Heart (2 h): 0.20 ± 0.08 % ID/g
Biodistribution Intestine (2 h): 0.72 ± 0.15 % ID/g
Biodistribution Kidneys (2 h): 103 ± 56.7 % ID/g
Biodistribution Liver (2 h): 2.75 ± 0.56 % ID/g
Biodistribution Lungs (2 h): 0.99 ± 0.32 % ID/g
Biodistribution Muscle (2 h): 0.15 ± 0.04 % ID/g
Biodistribution Pancreas (2 h): 0.41 ± 0.20 % ID/g
Biodistribution Spleen (2 h): 1.93 ± 0.85 % ID/g
Biodistribution Stomach (2 h): 0.09 ± 0.03 % ID/g
Biodistribution Testes (2 h): 0.40 ± 0.06 % ID/g
Biodistribution Tumor (2 h): 5.47 ± 0.75 % ID/g
Tumor:Blood contrast ratio (2 h): 26.9 ± 13.3
Tumor:Muscle contrast ratio (2 h): 37.4 ± 8.86
Tumor:kidney contrast ratio (2 h): 0.07 ± 0.03

C[N+](C)(Cc1cn(Cc2ccc(C(=O)NCCCC[C@H](NC(=O)N[C@@H](CCC(=O)O)C(=O)O)C(=O)O)cc2)nn1)C[B-](F)(F)[18F] [F-18 HTK-01070]
Biodistribution Adrenal glands (1 h): 4.65 ± 1.75 % ID/g
Biodistribution Blood (1 h): 0.52 ± 0.06 % ID/g
Biodistribution Bone (1 h): 0.44 ± 0.09 % ID/g
Biodistribution Brain (1 h): 0.04 ± 0.01 % ID/g
Biodistribution Fat (1 h): 0.73 ± 0.26 % ID/g
Biodistribution Heart (1 h): 0.33 ± 0.08 % ID/g
Biodistribution Intestine (1 h): 0.33 ± 0.05 % ID/g
Biodistribution Kidneys (1 h): 71.7 ± 18.0 % ID/g
Biodistribution Liver (1 h): 1.69 ± 0.19 % ID/g
Biodistribution Lungs (1 h): 1.39 ± 0.17 % ID/g
Biodistribution Muscle (1 h): 0.23 ± 0.04 % ID/g
Biodistribution Pancreas (1 h): 0.33 ± 0.05 % ID/g
Biodistribution Spleen (1 h): 5.01 ± 0.64 % ID/g
Biodistribution Stomach (1 h): 0.10 ± 0.03 % ID/g
Biodistribution Testes (1 h): 0.67 ± 0.17 % ID/g
Biodistribution Tumor (1 h): 8.28 ± 1.25 % ID/g
Tumor:Blood contrast ratio (1 h): 16.0 ± 1.37
Tumor:Muscle contrast ratio (1 h): 37.3 ± 9.53
Tumor:kidney contrast ratio (1 h): 0.12 ± 0.04
Biodistribution Adrenal glands (2 h): 2.11 ± 0.78 % ID/g
Biodistribution Blood (2 h): 0.23 ± 0.11 % ID/g
Biodistribution Bone (2 h): 0.30 ± 0.06 % ID/g
Biodistribution Brain (2 h): 0.03 ± 0.01 % ID/g
Biodistribution Fat (2 h): 0.62 ± 0.34 % ID/g
Biodistribution Heart (2 h): 0.13 ± 0.06 % ID/g
Biodistribution Intestine (2 h): 0.29 ± 0.08 % ID/g
Biodistribution Kidneys (2 h): 68.5 ± 28.7 % ID/g
Biodistribution Liver (2 h): 1.50 ± 0.30 % ID/g
Biodistribution Lungs (2 h): 0.69 ± 0.23 % ID/g
Biodistribution Muscle (2 h): 0.12 ± 0.03 % ID/g
Biodistribution Pancreas (2 h): 0.21 ± 0.07 % ID/g
Biodistribution Spleen (2 h): 1.30 ± 0.48 % ID/g
Biodistribution Stomach (2 h): 0.06 ± 0.02 % ID/g
Biodistribution Testes (2 h): 0.36 ± 0.21 % ID/g
Biodistribution Tumor (2 h): 7.56 ± 1.57 % ID/g
Tumor:Blood contrast ratio (2 h): 38.9 ± 18.8
Tumor:Muscle contrast ratio (2 h): 67.7 ± 14.8
Tumor:kidney contrast ratio (2 h): 0.14 ± 0.10
